Results: patent EP2235030B1, “COMPOUND OF THE DISACCHARIDE TYPE COMPOSITION COMPRISING AND METHOD FOR PRODUCING SUCH A COMPOUND” (Université de Picardie Jules Verne, priority 2007, dated 2009)
Marks after values point to notes of the source that are not given here.

Experiments:
[1] = system: Macrosiphum euphorbiae (Thomas); assay: Aphid neonates reared on artificial diet supplemented with DPS2: demographic parameters and body size; format: in vivo; conditions: for rm: intrinsic rate of population increase
Procedure: (§1) Deux espèces de pucerons Myzus persicae (Sulzer) et Macrosiphum euphorbiae (Thomas) ont été utilisées pour cette étude. Des adultes ont été isolés et placés dans des cages de PVC sur milieu artificiel pendant une journée afin de synchroniser la descendance. Les néonates, âgés de moins de 24 h sont alors placés sur milieu artificiel contenant des concentrations variant de 0 à 100 µg.mL^-1 du composé DPS2, synthétisé précédemment, selon un protocole décrit par Saguez J, Dubois F, Vincent C, Laberche JC, Sangwan-Norreel BS et Giordanengo P (2006), dans l'article intitulé « Differential aphicidal effects of chitinase inhibitors on the polyphagous homopteran Myzus pensicae (Sulzer) » et publié dans Pest Manag Sci 62: 1150-1154. Plusieurs paramètres démographiques sont relevés quotidiennement afin de déterminer la durée du développement larvaire, la mortalité larvaire et la fécondité et de calculer un paramètre synthétique, le rm (taux intrinsèque d'accroissement des populations) et le temps de doublement des populations. Un minimum de 50 pucerons de chaque espèce est testé par traitement et les individus sont suivis quotidiennement. La taille des pucerons a été mesurée une semaine après le début de l'expérience, sous loupe binoculaire à l'aide d'un oculaire biométrique. Les effets du DPS2 sur la survie larvaire sont analysés par un test du χ^2 de Pearson. Une analyse de variance (ANOVA monofactorielle) a été réalisée avec le logiciel Statistica 5.5 (StatSoft®, Tulsa, Oklahoma, USA) pour tester les effets du DPS2 sur les paramètres démographiques des aphides. Les paramètres significativement altérés sont ensuite analysés par un test de Fisher (PLSD) au seuil de significativité P <0,05.
(§2) Dans les tableaux I, II et III qui suivent, les résultats sont exprimés sous la forme : moyenne ± écart-type. L'effet significatif (*) été testé par une analyse de variance monofactorielle (F) à P<0.05. Les valeurs de même rang suivies par une même lettre indiquent qu'il n'existe pas de différence significative d'après le test du PLSD de Fisher (P<0.05).

[2] = system: pucerons M. persicae et M. euphorbiae; assay: Aphid artificial diet test, statements made for both aphid species without distinction; format: in vivo, Myzus persicae, Macrosiphum euphorbiae
Procedure: as §1

[3] = system: Myzus persicae (Sulzer); assay: Aphid neonates reared on artificial diet supplemented with DPS2: demographic parameters; format: in vivo; conditions: for Temps de doublement de la population / Fécondité journalière / Période préreproductive / rm: mean ± SD; for rm: intrinsic rate of population increase
Procedure: as §1, §2

[4] = system: chitinases d'insectes et de champignons; conditions: competitive inhibition; cited from earlier work
[5] = DPS2 1 µg.mL^-1 in artificial diet, mean ± SD
[6] = DPS2 10 µg.mL^-1 in artificial diet, mean ± SD
[7] = DPS2 50 µg.mL^-1 in artificial diet, mean ± SD
[8] = DPS2 100 µg.mL^-1 in artificial diet, mean ± SD
[9] = DPS2 1 µg.mL^-1 in artificial diet
[10] = DPS2 10 µg.mL^-1 in artificial diet
[11] = DPS2 50 µg.mL^-1 in artificial diet
[12] = DPS2 100 µg.mL^-1 in artificial diet

## CCCOC1O[C@H](COS(=O)(=O)O)[C@@H](O[C@@H]2O[C@H](CO)[C@@H](O)[C@H](O)[C@H]2NC(C)=O)[C@H](O)[C@H]1OC(C)=O (stereo partly shown) [DPS2]
[1]; DPS2 1 µg.mL-1 in artificial diet, after 7 days, mean ± SD
  taille des pucerons: 2,2 ± 0,3^a mm
[1]; DPS2 1 µg.mL^-1, mean ± SD
  Temps de doublement de la population: 4,7 ± 1,0^ab jours
  rm: 0,16 ± 0,04^b femelles.femelles^-1.jours^-1
[1]; [5]
  Fécondité journalière: 1,16 ± 0,36^a larves.femelles-1 .jour-1
  Période préreproductive: 11,3 ± 2,1^a jours
[1]; DPS2 10 µg.mL-1 in artificial diet, after 7 days, mean ± SD
  taille des pucerons: 2,1 ± 0,3^b mm
[1]; DPS2 10 µg.mL^-1, mean ± SD
  Temps de doublement de la population: 5,5 ± 1,3^b jours
  rm: 0,13 ± 0,03^b femelles.femelles^-1.jours^-1
[1]; [6]
  Fécondité journalière: 1,06 ± 0,34^a larves.femelles-1 .jour-1
  Période préreproductive: 12,1 ± 1,6^a jours
[1]; DPS2 50 µg.mL-1 in artificial diet, after 7 days, mean ± SD
  taille des pucerons: 1,8 ± 0,2^bc mm
[1]; DPS2 50 µg.mL^-1, mean ± SD
  Temps de doublement de la population: 8,1 ± 1,6^c jours
  rm: 0,09 ± 0,03^c femelles.femelles^-1.jours^-1
[1]; [7]
  Fécondité journalière: 0,81 ± 0,20^b larves.femelles-1 .jour-1
  Période préreproductive: 13,4 ± 1,2^b jours
[1]; DPS2 100 µg.mL-1 in artificial diet, after 7 days, mean ± SD
  taille des pucerons: 1,7 ± 0,2^c mm
[1]; DPS2 100 µg.mL^-1, mean ± SD
  Temps de doublement de la population: 6,5 ± 2,0^c jours
  rm: 0,08 ± 0,03^c femelles.femelles^-1.jours^-1
[1]; [8]
  Fécondité journalière: 0,73 ± 0,22^b larves.femelles-1 .jour-1
  Période préreproductive: 13,5 ± 1,6^b jours
[1]; Macrosiphum euphorbiae, 50 µg.mL^-1, read-out: mortalité larvaire
  mortality at 50 µg/mL: 49%
[1]; Macrosiphum euphorbiae, 100 µg.mL^-1, read-out: mortalité larvaire
  mortality at 100 µg/mL: 53%
[1]; from 10 µg.mL^-1 upwards
  taille des pucerons: réduite
[1]; highest concentrations, 'près de'
  augmentation du temps de doublement des populations: ~4 jours
[1]; increase versus control diet, at the highest concentrations
  durée de la période pré-reproductive (augmentation): deux jours
[2]; DPS2 between 50 and 100 µg.mL^-1, many aphids die before leaving the old cuticle
  processus de mue: affectés
[2]; both aphid species, including the lowest concentration of 1 µg.mL^-1
  taux intrinsèque d'accroissement des populations (rm): réduite
[2]; whatever parameter and aphid species, effects similar at 50 and 100 µg.mL^-1
  concentration dès laquelle les effets aphicides maximum sont obtenus: 50 µg/mL
[3]; DPS2 1 µg.mL^-1
  Temps de doublement de la population: 5,6 ± 1,8^b jours
  rm: 0,13 ± 0,04^b femelles.femelles^-1 .jours^-1
[3]; [9]
  Fécondité journalière: 0,99 ± 0,27^a larves.femelles-1.jour-1
  Période préreproductive: 11,6 ± 1,9^b jours
[3]; DPS2 10 µg.mL^-1
  Temps de doublement de la population: 5,4 ± 1,2^b b jours
  rm: 0,13 ± 0,03^b femelles.femelles^-1 .jours^-1
[3]; [10]
  Fécondité journalière: 0,91 ± 0,28^b larves.femelles-1.jour-1
  Période préreproductive: 10,9 ± 1,5^a jours
[3]; DPS2 50 µg.mL^-1
  Temps de doublement de la population: 5,9 ± 1,6^b b jours
  rm: 0,12 ± 0,03^bc femelles.femelles^-1 .jours^-1
[3]; [11]
  Fécondité journalière: 0,74 ± 0,24^bc larves.femelles-1.jour-1
  Période préreproductive: 11,1 ± 1,4^a jours
[3]; DPS2 100 µg.mL^-1
  Temps de doublement de la population: 6,5 ± 2,0^a jours
  rm: 0,11 ± 0,03^c femelles.femelles^-1 .jours^-1
[3]; [12]
  Fécondité journalière: 0,65 ± 0,11^bc larves.femelles-1.jour-1
  Période préreproductive: 11,9 ± 1,7^b jours
[3]; increase versus control diet
  durée de la période pré-reproductive (augmentation): augmentée d'environ une journée

## allosamidine
[4]
  activité inhibitrice contre les chitinases: puissante activité inhibitrice
